Experiments:
Human KARS = target: T1, Human KARS (Homo sapiens, UniProt Q15046); assay: KARS AMP Transcreener FP assay; format: biochemical; settings: 50 nM human KARS, 20 μM ATP, 50 μM L-Lysine, 1 μM tRNA, 2 h at RT; read-out: Human KARS Transcreener AMP assay Qualified absolute AC50
T1 construct: Human KARS protein (residues 70-584) was expressed and purified; made in house
From the text: KARS AMP Transcreener FP Assay to Measure Inhibition of KARS Enzymatic Activity
Lysine-tRNA synthetase (KARS) is an enzyme that catalyzes the reaction of ATP, L-lysine, and tRNA(Lys) to form AMP, diphosphate, and L-lysyl-tRNA(Lys).
The Transceener® AMP/GMP (BellBrook Labs, Madison, WI, USA) is a far red, competitive fluorescence polarization (FP) immunoassay based on the detection of AMP, which is one of the products of aminoacylation of tRNA. In this assay, a fluorescently labeled AMP (AMP Alexa Fluor 633) is used as the tracer that can be recognized by a specific antibody. In the absence of AMP, all the tracer molecules are bound to the antibodies leading to large polarization. The AMP product generated by the enzyme reaction will compete with the tracer for binding to the antibody which leads to a decrease in the polarization. As such, the enzyme activity is inversely proportional to FP values.
Human KARS protein (residues 70-584) was expressed and purified using a similar protocol to what is described in literature (Crystal structure of tetrameric form of human lysyl-tRNA synthetase: Implications for multisynthetase complex formation Guo, M., Ignatov, M., Musier-Forsyth, K., Schimmel, P., Yang, X. L. (2008) Proc. Natl. Acad. Sci. Usa 105: 2331-2336).
The KARS enzyme assay was performed in a final volume of 10 μL per well of Corning Costar 384 well plate, flat bottom, black non-treated plate. The final assay concentration was 20 mM HEPES pH 7.5, 1 mM DTT, 50 nM human KARS, 20 μM ATP, 50 μM L-Lysine, 1 μM tRNA and 8 mM MgCl2. Compounds were serial diluted 1:3 in DMSO in a master plate to generate a 10 concentration points dose response with maximum concentration of 10 mM. 50 nL from compound master plate were spotted in each well of a 384 black plate (Corning 3573), and 5 μL of enzyme mixture containing 100 nM KARS diluted in assay buffer (20 mM HEPES pH 7.5 and 1 mM OTT) were added. The reaction was started by adding 5 μL of the substrate mixture containing 40 μM ATP (final 20 μM ATP), 100 μM L-Lysine (final 50 μM), 2 μM tRNA (final 1 μM), 16 mM MgCl2 (final 8 mM MgCl2) diluted in assay buffer (20 mM HEPES pH 7.5 and 1 mM OTT). The mixtures were mixed and incubated for 2 h at RT before the termination of the reaction.
Transcreener® stop and detection buffers were prepared (1× stop buffer [final: 0.5×], 2 nM Tracer [final: 1 nM] and 5 μg/ml anti-AMP antibody [final: 2.5 μg/ml] in deionized water) and 10 μL of the stop and detection mix were added to the reaction wells, mixed for a minute and centrifuged at 1000 rpm for 10 seconds. The plates were read after incubating at RT for 30-60 min using Infinite® M1000 with the following settings: Excitation wavelength: 635 nm; Emission wavelength: 680 nm. FP values of DMSO controls were used to normalize the data and calculate IC50s of compounds using the Helios Software suite.

[1] = test system: NCI-H460 human lung cancer xenograft; assay: In vivo efficacy in NCI-H460 xenograft; set-up: species or system mice; settings: for ΔT/ΔC: qd, Day 18
Procedure: Compound 40 Dose Dependent In Vivo Efficacy in the KEAP1 Mutant and Moderately AKR1C3 Expressing Human Lung Cancer Xenograft NCI-H460
Anti-cancer efficacy of Compound 40 was assessed in the NCI-H460 human lung cancer xenograft model in mice that expresses moderate levels of AKR1C3. NCI-H460 tumors were established in nude female mice by injection of a tumor cells subcutaneously. When tumors reached approximately 200 mm^3, mice were randomized according to tumor volume into treatment groups (n=7 per group) on Day 8.

[2] = test system: NCI-H1944 (KEAP1 mutant, AKR1C3 expressing) cell line derived lung cancer xenografts; assay: PK/PD in NCI-H1944 xenograft (tumor DDIT3 and EGR1 mRNA induction); format: in vivo, mice; settings: single oral administration
Procedure: Compound 40 Dose Dependent Pharmacokinetics and Pharmacodynamic (PK/PD) Changes in the KEAP1 Mutant AKR1C3 Expressing Human Lung Cancer Xenograft NCI-H1944
The PK/PD relationship of Compound 40 was assessed in nude mice with established subcutaneous NCI-H1944 (KEAP1 mutant, AKR1C3 expressing) cell line derived lung cancer xenografts (FIG. 2). After a single oral administration of Compound 40, blood and tumor were collected to explore the PK profile of Compound 40 levels in blood and tumor. Compound 152, the active metabolite of the prodrug Compound 40 that inhibits KARS was also measured in tumor and blood. The PK data were compared to the tumor PD marker readouts of DDIT3 and EGR1 mRNA induction, downstream transcriptional readouts of KARS inhibition.

T1 sequence (Q15046 70-584): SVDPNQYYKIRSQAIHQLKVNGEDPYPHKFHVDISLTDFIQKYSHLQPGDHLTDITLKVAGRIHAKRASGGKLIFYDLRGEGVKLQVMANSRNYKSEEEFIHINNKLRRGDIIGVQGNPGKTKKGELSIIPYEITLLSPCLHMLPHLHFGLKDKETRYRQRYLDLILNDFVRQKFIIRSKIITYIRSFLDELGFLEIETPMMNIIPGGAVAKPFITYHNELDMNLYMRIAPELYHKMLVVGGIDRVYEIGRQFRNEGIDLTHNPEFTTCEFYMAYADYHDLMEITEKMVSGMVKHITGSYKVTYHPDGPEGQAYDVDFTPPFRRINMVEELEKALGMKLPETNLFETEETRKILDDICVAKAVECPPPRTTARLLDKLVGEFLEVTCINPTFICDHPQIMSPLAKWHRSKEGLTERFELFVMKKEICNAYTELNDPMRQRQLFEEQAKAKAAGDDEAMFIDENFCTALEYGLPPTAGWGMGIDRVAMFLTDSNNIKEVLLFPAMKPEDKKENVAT

SMILES: O=C1CC2(CCN(C(=O)NCc3ccc(F)cc3)CC2)Nc2ccc(F)cc21 [Example 40]
- AC50 (Human KARS): > 10 µM
- Tumor response ([1]; 75 mg/kg qd): clear reduction in efficacy
- ΔT/ΔC ([1]; 75 mg/kg, po): 25.9%
- Tumor response ([1]; 150 mg/kg qd): some reduction in efficacy
- ΔT/ΔC ([1]; 150 mg/kg, po): 5.6%
- ΔT/ΔC ([1]; 300 mg/kg po): 1.8%
- Tumor response ([1]; 300 mg/kg qd): Tumor stasis
- duration of the induction of DDIT3 and EGR1 mRNA levels ([2]; dose escalation, NCI-H1944 xenografts): increased with dose escalation
- tumor PD markers (DDIT3 and EGR1 mRNA induction) after dosing ([2]; nude mice with NCI-H1944 xenografts): remained elevated for 24 hours post-dose
